The results in this text go back to patent publication US20190337910A1, “ALLOSTERIC MODULATORS OF NICOTINIC ACETYLCHOLINE RECEPTORS” (MERCK SHARP & DOHME CORP., priority 2016, published 2019).

Where two headings read alike, the source gives them in different places. Where only a bound is given, the exact number is not on record here.

This experiment concerns the target T1, human α7 nAChR stably expressed in a HEK cell line (with human RIC-3) (Homo sapiens, UniProt P36544).
T1 construct: PrecisION hnAChR α7/RIC-3 (product name; no catalogue number given)
Briefly: Automated patch-clamp electrophysiology functional assay (Assay A), IonFlux HT, whole-cell population patch. In kind it is cell-based. The protocol: The α7 nAChR positive allosteric modulator (PAM) activity of the present compounds may be tested using assays known in the art. The α7 nAChR PAMs described herein have activities in an automated patch-clamp electrophysiology functional assay as described in the examples. The assay was performed using the IonFlux HT in a whole-cell, population patch configuration. See Golden et al. Assay Drug Dev. Technol. (2011) 9:608-619. The compounds were assessed for their ability to modulate the function of the human α7 nAChR stably expressed in a HEK cell line both in the presence, and in the absence of the natural α7 agonist acetylcholine. By performing a series of such measurements at different concentrations, the effective concentration of the α7 nAChR PAMs (EC50) was determined. See Spencer et al. Assay Drug Dev. Technol. (2012) 10:313-324.
Direct activation of α7 (agonism), and potentiation of acetylcholine-evoked α7 currents was determined as follows:
Automated Patch-Clamp Electrophysiology Functional Assay (Assay A)
Automated patch-clamp electrophysiology was performed using the IonFlux HT (Fluxion Biosciences Inc., San Francisco, Calif.) in the whole-cell, population patch configuration. Test compounds were assessed for their ability to modulate the function of the α7 nicotinic acetylcholine receptor both in the presence, and in the absence of the natural α7 agonist acetylcholine. A HEK cell line stably expressing both human RIC-3 and human α7 (PrecisION hnAChR α7/RIC-3, Eurofins Pharma, St. Charles, Mo.) was cultured in 175 cm^2 triple-layer tissue culture flasks to no more than 90% confluency in DMEM/F-12 growth media supplemented with 10% heat-inactivated fetal bovine serum, 1% non-essential amino acids, 0.625 μg/mL Puromycin, and 400 μg/mL Geneticin. Immediately prior to assay, cells were detached by first aspirating growth media, rinsing with Dulbecco's phosphate buffered saline, and then adding 10 mL of Accutase (Innovative Cell Technologies, San Diego, Calif.) to the flask and then incubating at 37° C. for 5 minutes. Detached cells were then recovered by the addition of 40 mL of CHO-serum-free media supplemented with 25 mM HEPES, and rocked gently in a 50 mL conical tube for 20 minutes prior to patch-clamp assay. After recovery, cells were pelleted by centrifugation at 1,000 RPM for 1 minute in a compact bench top centrifuge; recovery media was aspirated and cells were resuspended in external recording solution (150 mM NaCl, 5 mM KCl, 2 mM CaCl2, 1 mM MgCl2, 10 mM HEPES, 12 mM dextrose) to a density of 5.0×10^6 cells/mL. The cell suspension was added to the cell inlet wells on an IonFlux HT population patch plate which had previously been rinsed and primed with deionized H2O. Test compounds were serially diluted in DMSO and then resuspended to the final test concentration in external recording solution, with, or without 40 μM acetylcholine added to the external recording solution; test compounds were then transferred to the IonFlux HT population patch plate. Internal recording solution (110 mM TrisPO4, 28 mM TrisBase, 0.1 mM CaCl2, 2 mM MgCl2, 11 mM EGTA, 4 mM MgATP) was added to the internal recording solution inlet wells on the IonFlux HT patch plate previously loaded with cells and test compounds, and the plate loaded into the IonFlux HT instrument. A protocol was executed on the IonFlux HT to trap the cells, break into the cells, and establish the whole-cell recording configuration; cells were voltage-clamped at a holding potential of −60 mV for the duration of the experiment, all experiments were conducted at room temperature, and the IonFlux HT injection pressure was 8 psi for solution applications. Upon establishing the whole-cell configuration, external recording solution was perfused into the recording chambers for 120 seconds and then 40 μM acetylcholine was applied for 1 second and immediately washed off with external recording solution for 60 seconds. […]

Setting [1] is: HEK cell line stably expressing human α7 and human RIC-3, 40 μM acetylcholine, holding potential −60 mV, room temperature, read-out: α7 nAChR EC50.
Where [2] appears, read: automated patch-clamp electrophysiology functional assay (Assay A), potency class by EC50, read-out: α7 nAChR Potency.

T1 sequence (P36544 23-502): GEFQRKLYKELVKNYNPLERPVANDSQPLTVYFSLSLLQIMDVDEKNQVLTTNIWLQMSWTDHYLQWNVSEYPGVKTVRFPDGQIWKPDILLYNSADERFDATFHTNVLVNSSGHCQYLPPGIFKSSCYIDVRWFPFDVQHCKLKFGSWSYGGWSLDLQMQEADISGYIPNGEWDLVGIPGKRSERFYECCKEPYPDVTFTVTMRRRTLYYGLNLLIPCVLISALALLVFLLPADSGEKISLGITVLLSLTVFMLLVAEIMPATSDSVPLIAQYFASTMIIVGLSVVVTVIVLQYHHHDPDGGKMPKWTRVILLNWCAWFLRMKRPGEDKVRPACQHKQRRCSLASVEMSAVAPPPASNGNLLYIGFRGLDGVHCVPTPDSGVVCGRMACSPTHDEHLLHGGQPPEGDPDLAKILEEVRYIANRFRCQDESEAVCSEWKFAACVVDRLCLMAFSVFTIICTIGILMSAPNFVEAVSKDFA

Consider “4-{(1S,3S)-3-[2-(3-Fluorophenyl)-1-methyl-1H-imidazol-4-yl]-2,2-dimethylcycloproyl}benzenesulfonamide [Example 35]”, for which the EC50 was 4.4 µM under setting [1] and 0.5 to 5 µM under setting [2].

For `NS(=O)(=O)c1ccc(C2C(c3cnc(-c4ccccc4)o3)C2(F)F)cc1` (racemic) [Example M1], under setting [2], the EC50 fell in the range of 0.5 to 5 µM.

For `NS(=O)(=O)c1ccc(C2C(c3nc(-c4ccccc4)no3)C2(Cl)Cl)cc1` (racemic) [Example M9], the EC50 is 0.14 µM under setting [1] and 0.1 to 0.5 µM under setting [2].

Regarding `Cc1cc(C2C(c3nc(-c4ccccc4)no3)C2(C)C)ccc1S(N)(=O)=O` (single isomer, unassigned) [Example M8], under setting [2], the EC50 was 5 to 50 µM.

For `Cc1cc(S(N)(=O)=O)ccc1[C@H]1C(c2nc(-c3ccccc3)no2)C1(C)C` (single isomer, unassigned; enantiomer a) [Example 38, 4-[trans-2,2-Dimethyl-3-(3-phenyl-1,2,4-oxadiazol-5-yl)cyclopropyl]-3-methylbenzenesulfonamide, enantiomer A], the EC50 under setting [1] came to 4.3 µM and the EC50 under setting [2] was 0.5 to 5 µM.

`CC1(C)[C@H](c2ccc(S(N)(=O)=O)cc2)[C@H]1c1nc(-c2ccc(F)cc2C(F)(F)F)no1` [Example A2]: the EC50 reads like this: under setting [1], 1.7 µM; under setting [2], 0.5 to 5 µM.

Regarding `Cc1cccc(F)c1-c1noc([C@@H]2C[C@H]2c2ccc(S(N)(=O)=O)cc2)n1` [Example C11], under setting [2], the EC50 fell in the range of 0.1 to 0.5 µM.

`CC1(c2nc(-c3ccc(F)cc3F)no2)CC1c1ccc(S(N)(=O)=O)cc1` (centres unmarked) [Example E3]: the EC50 is, setting by setting: under setting [1], 6.9 µM; under setting [2], 5 to 50 µM.

Take `CC1(c2ccc(S(N)(=O)=O)cc2)CC1c1nc(-c2ccc(F)cc2F)no1` (centres unmarked) [Example E4]: the EC50 is 1.7 µM under setting [1] and 0.5 to 5 µM under setting [2].

As to `CC1(C)[C@H](c2ccc(S(N)(=O)=O)cc2)[C@H]1c1nnc(C2CCCCC2)s1` [Example F7], the EC50 under setting [2] was in the range of 0.5 to 5 µM.

With `CC(Oc1cccc(Cl)c1)c1nc(C2C(c3ccc(S(N)(=O)=O)cc3)C2(C)C)no1` (centres unmarked) [Example I2], under setting [2], the EC50 was at most 0.1 µM.

For `CC1(C)[C@@H](c2ccc(S(N)(=O)=O)cc2)[C@@H]1c1noc(-c2ccncc2C(F)(F)F)n1` [Example I20], the EC50 under setting [1] came out at 0.45 µM.

With `CC1(C)[C@H](c2ccc(S(N)(=O)=O)cc2)[C@H]1c1nc(C2CC2)co1` [Example J5], the EC50 under setting [2] is 0.5 to 5 µM.

As for `CC1(C)[C@@H](c2ccc(S(N)(=O)=O)cc2)[C@@H]1c1nc(-c2cc(F)ccc2F)co1` [Example K2], the EC50 by setting is: under setting [1], 1.6 µM; under setting [2], 0.5 to 5 µM.

Regarding `CC1(C)[C@@H](c2ccc(S(N)(=O)=O)cc2)[C@@H]1c1nc(-c2cccc(F)c2)cs1` [Example K10], the EC50 by setting is: under setting [1], 3.9 µM; under setting [2], 0.5 to 5 µM.

Turning to `CC(C)c1csc([C@H]2[C@H](c3ccc(S(N)(=O)=O)cc3)C2(C)C)n1` [Example K11], the EC50 by setting is: under setting [1], 1.1 µM; under setting [2], 0.5 to 5 µM.

As to `NS(=O)(=O)c1ccc([C@@H]2C[C@H]2c2ncc(C3CCCC3)s2)cc1` [Example K15], under setting [2], the EC50 was in the range of 0.1 to 0.5 µM.
